Laboratory results as given in the supplement of paper PMC10307832.

Key:
Assay in all cases: relative viability (nuclei count vs DMSO), 5 days (fraction); higher = more cells survive
201T = tested on: 201T
Method in brief: (§1)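 Lung cancer cell lines in 1536-well plates were dosed by pin tool the day after seeding, either with one drug alone or with a fixed anchor-drug dose plus five library-drug doses (not always all listed) in √10 steps. After 5 days, cells were fixed and their nuclei stained in one step (final 0.05% Triton X-100, 1% formaldehyde, 1 ug/ml Hoechst), then counted on 4× images. Relative viability is the nuclei count in treated wells divided by that in vehicle wells. Values are medians of duplicate plates.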

BEN = tested on: BEN
Method in brief: as §1

CAL-12T = tested on: CAL-12T
Method in brief: as §1

COR-L 105 = tested on: COR-L 105
Method in brief: as §1

EKVX = tested on: EKVX
Method in brief: as §1

HARA = tested on: HARA
Method in brief: as §1

HCC-366 = tested on: HCC-366
Method in brief: as §1

LK-2 = tested on: LK-2
Method in brief: as §1

LOU-NH91 = tested on: LOU-NH91
Method in brief: as §1

NCI-H1437 = tested on: NCI-H1437
Method in brief: as §1

NCI-H1650 = tested on: NCI-H1650
Method in brief: as §1

NCI-H1666 = tested on: NCI-H1666
Method in brief: as §1

NCI-H2009 = tested on: NCI-H2009
Method in brief: as §1

NCI-H2170 = tested on: NCI-H2170
Method in brief: as §1

NCI-H3122 = tested on: NCI-H3122
Method in brief: as §1

NCI-H441 = tested on: NCI-H441
Method in brief: as §1

NCI-H460 = tested on: NCI-H460
Method in brief: as §1

NCI-H727 = tested on: NCI-H727
Method in brief: as §1

PC-14 = tested on: PC-14
Method in brief: as §1

Which results are given for `COc1cc2nccc(Oc3ccc(NC(=O)Nc4cc(C)on4)c(Cl)c3)c2cc1OC` [Tivozanib] + CC1(C)CCC(c2ccc(Cl)cc2)=C(CN2CCN(c3ccc(C(=O)NS(=O)(=O)c4ccc(N[C@H](CCN5CCOCC5)CSc5ccccc5)c(S(=O)(=O)C(F)(F)F)c4)cc3)CC2)C1 [Navitoclax] (partner 0.5 µM)?
relative viability (201T; first compound 0.005 µM): 1.21; relative viability (201T; first compound 0.01581 µM): 1.17; relative viability (201T; first compound 0.05 µM): 1.22; relative viability (201T; first compound 0.1581 µM): 1.17; relative viability (201T; first compound 0.5 µM): 1.18; relative viability (BEN; first compound 0.005 µM): 0.0616; relative viability (BEN; first compound 0.01581 µM): 0.0524; relative viability (BEN; first compound 0.05 µM): 0.0639; relative viability (BEN; first compound 0.5 µM): 0.0625; relative viability (CAL-12T; first compound 0.005 µM): 1.11; relative viability (CAL-12T; first compound 0.01581 µM): 1.19; relative viability (CAL-12T; first compound 0.05 µM): 1.18; relative viability (CAL-12T; first compound 0.5 µM): 0.94; relative viability (COR-L 105; first compound 0.01581 µM): 0.835; relative viability (COR-L 105; first compound 0.05 µM): 0.829; relative viability (COR-L 105; first compound 0.1581 µM): 1.17; relative viability (COR-L 105; first compound 0.5 µM): 0.743; relative viability (EKVX; first compound 0.005 µM): 0.869; relative viability (EKVX; first compound 0.01581 µM): 0.772; relative viability (EKVX; first compound 0.05 µM): 0.982; relative viability (EKVX; first compound 0.1581 µM): 0.793; relative viability (EKVX; first compound 0.5 µM): 0.922; relative viability (HARA; first compound 0.005 µM): 1.11; relative viability (HARA; first compound 0.01581 µM): 1.04; relative viability (HARA; first compound 0.05 µM): 1.19; relative viability (HARA; first compound 0.1581 µM): 1.19; relative viability (HARA; first compound 0.5 µM): 1.15; relative viability (HCC-366; first compound 0.005 µM): 1.05; relative viability (HCC-366; first compound 0.01581 µM): 1.05; relative viability (HCC-366; first compound 0.05 µM): 0.947; relative viability (HCC-366; first compound 0.1581 µM): 1.01; relative viability (HCC-366; first compound 0.5 µM): 1.08; relative viability (LK-2; first compound 0.005 µM): 0.819; relative viability (LK-2; first compound 0.01581 µM): 0.789; relative viability (LK-2; first compound 0.05 µM): 0.952; relative viability (LK-2; first compound 0.1581 µM): 0.802; relative viability (LK-2; first compound 0.5 µM): 0.644; relative viability (LOU-NH91; first compound 0.005 µM): 0.641; relative viability (LOU-NH91; first compound 0.01581 µM): 0.715; relative viability (LOU-NH91; first compound 0.05 µM): 0.706; relative viability (LOU-NH91; first compound 0.1581 µM): 0.675; relative viability (LOU-NH91; first compound 0.5 µM): 0.705; relative viability (NCI-H1437; first compound 0.005 µM): 1.06; relative viability (NCI-H1437; first compound 0.01581 µM): 1.12; relative viability (NCI-H1437; first compound 0.05 µM): 1.07; relative viability (NCI-H1437; first compound 0.1581 µM): 1.02; relative viability (NCI-H1437; first compound 0.5 µM): 1.02; relative viability (NCI-H1650; first compound 0.005 µM): 1.1; relative viability (NCI-H1650; first compound 0.01581 µM): 1.2; relative viability (NCI-H1650; first compound 0.05 µM): 1.15; relative viability (NCI-H1650; first compound 0.1581 µM): 1.28; relative viability (NCI-H1650; first compound 0.5 µM): 1.53; relative viability (NCI-H1666; first compound 0.005 µM): 0.993; relative viability (NCI-H1666; first compound 0.01581 µM): 0.96; relative viability (NCI-H1666; first compound 0.05 µM): 1.02; relative viability (NCI-H1666; first compound 0.1581 µM): 0.891; relative viability (NCI-H1666; first compound 0.5 µM): 0.867; relative viability (NCI-H2009; first compound 0.005 µM): 1.11; relative viability (NCI-H2009; first compound 0.01581 µM): 1.16; relative viability (NCI-H2009; first compound 0.05 µM): 1.19; relative viability (NCI-H2009; first compound 0.1581 µM): 1.24; relative viability (NCI-H2009; first compound 0.5 µM): 1.14; relative viability (NCI-H2170; first compound 0.005 µM): 0.537; relative viability (NCI-H2170; first compound 0.01581 µM): 0.568; relative viability (NCI-H2170; first compound 0.05 µM): 0.677; relative viability (NCI-H2170; first compound 0.5 µM): 0.584; relative viability (NCI-H3122; first compound 0.005 µM): 1.03; relative viability (NCI-H3122; first compound 0.01581 µM): 1; relative viability (NCI-H3122; first compound 0.05 µM): 1.07; relative viability (NCI-H3122; first compound 0.1581 µM): 1.03; relative viability (NCI-H3122; first compound 0.5 µM): 1.03; relative viability (NCI-H441; first compound 0.005 µM): 0.473; relative viability (NCI-H441; first compound 0.01581 µM): 0.424; relative viability (NCI-H441; first compound 0.05 µM): 0.747; relative viability (NCI-H441; first compound 0.1581 µM): 0.566; relative viability (NCI-H441; first compound 0.5 µM): 0.545; relative viability (NCI-H460; first compound 0.005 µM): 1.09; relative viability (NCI-H460; first compound 0.01581 µM): 1.24; relative viability (NCI-H460; first compound 0.05 µM): 1.13; relative viability (NCI-H460; first compound 0.1581 µM): 1.17; relative viability (NCI-H460; first compound 0.5 µM): 1.1; relative viability (NCI-H727; first compound 0.005 µM): 0.343; relative viability (NCI-H727; first compound 0.01581 µM): 0.49; relative viability (NCI-H727; first compound 0.05 µM): 0.412; relative viability (NCI-H727; first compound 0.5 µM): 0.551; relative viability (PC-14; first compound 0.005 µM): 0.98; relative viability (PC-14; first compound 0.01581 µM): 1.04; relative viability (PC-14; first compound 0.05 µM): 1.11; relative viability (PC-14; first compound 0.1581 µM): 1.07; relative viability (PC-14; first compound 0.5 µM): 1
